Consider 8 compounds from patent US12497411B2, “Muscarinic acetylcholine receptor subtype 4 antagonists in the treatment of anemia” (COLD SPRING HARBOR LABORATORY, priority 2019, dated 2025).

Where a name gives a salt, the structure may show the parent alone.

One assay relates to Mouse BFU-Es. The assay is described as follows: Primary mouse BFU-E culture assay (cell expansion). It is filed as cell-based. The settings on record: for potency in stimulating BFU-E expansion: mouse primary cell BFU-E culture assay. How it is done:
Primary mouse BFU-Es were isolated from mouse embryonic day 14.5 (E14.5) fetal liver and cultured in StemSpan serum-free expansion medium, and the numbers of cells formed were counted during culture. BFU-Es were infected with either viruses encoding control shRNA or viruses encoding shRNAs targeting Chrm4, and numbers of GFP+ cells formed during culture were counted. DMSO or 25 mg/kg oxyphenonium bromide was intraperitoneally injected into the hemolysis mouse model, Mx1-cre Srsf2 P95H/WT MDS mouse model, and aging mouse model. Complete blood count (CBC) was performed after compound injection. CREB ChIP-Seq was performed on BFU-Es after culture with 100 μM oxyphenonium bromide for 45 minutes. RNA-Seq was performed in BFU-Es after being cultured with DMSO or oxyphenonium bromide for 3 days.
BFU-Es were isolated from mouse embryonic day 14.5 fetal liver using fluorescence-activated cell sorting (FACS) method previously described (Flygare et al., Blood 117, 3435-3444 (2011)). BFU-Es were cultured in StemSpan SFEM II medium containing rmSCF (100 ng/ml), EPO (2 U/ml), rmIGF-1 (40 ng/ml), dexamethasone (1 nmol/ml or 10 nmol/ml), oxyphenonium bromide ([…]), and orphenadrine citrate (1 μmol/ml).
BFU-Es were isolated from mouse embryonic day 14.5 fetal liver using fluorescence-activated cell sorting (FACS) method. BFU-Es were cultured in StemSpan SFEM II medium containing rmSCF (100 ng/ml), EPO (2 U/ml), rmIGF-1 (40 ng/ml), dexamethasone (1 nM), together with either DMSO, PCS1055 (5 nM), or PD102807 (3 nM). Numbers of cell formed were counted during in vitro culture.
FIGS. 7 and 8 show the results of the primary BFU-E culture assay. […] Highly purified BFU-Es were isolated as lin-Ter-119-CD16/CD32-Sca-1-CD41-c-Kit+CD71/Cd24a^10% low population using the fluorescence-activated cell sorting (FACS) method. BFU-Es were cultured in medium containing rmSCF, EPO, and rmIGF-1, in the presence of PD102807 or Compounds A-K at indicated concentrations.

In assay [1] the test system is PHZ induced hemolytic anemia in C57bl/6 mice. Nature of the assay: PHZ induced hemolytic anemia mouse model, CBC. It is filed as in vivo. The settings on record: subcutaneous injection; B 1.5, 3 or 5 mg/kg; I 0.5, 0.7 or 1 mg/kg; 60 mg/kg phenylhydrazine. How it is done: Animal experiments were conducted in the Cold Spring Harbor Laboratory Animal Shared Resource in accordance with Institutional Animal Care and Use Committee-approved procedures. 4-6 weeks old C57bl/6 mice, purchased from Jackson Laboratory and randomly distributed into compound and control treatment groups, were given through oral delivery of PCS1055 (50 mg/kg or 100 mg/kg) twice per day or PD102807 (50 mg/kg or 100 mg/kg) once per day everyday for 3 days. On day 3, mice were intraperitoneally injected with 60 mg/kg PHZ. Mice were then given through oral delivery of PD102807 (50 mg/kg or 100 mg/kg) once per day every day for 2 days. Peripheral blood samples were collected retro-orbitally on day 6 using heparinized capillary tubes in blood collection tubes with K2-EDTA. CBC was performed using Hemavet 950. […] C57bl/6 mice were injected with 60 mg/kg phenylhydrazine to induce hemolysis. Mice were delivered with either vehicle control or Compound A or B (30 mg/kg or 100 mg/kg). Peripheral blood samples were collected retro-orbitally using heparinized capillary tubes into blood collection tubes with K2-EDTA. Complete blood counting was performed using Hemavet 950. Hematocrit (HCT), red blood cell (RBC) and hemoglobin (Hb) values are shown. […] C57bl/6 mice were injected with 60 mg/kg phenylhydrazine to induce hemolysis. Mice were delivered with subcutaneous injection with either vehicle control or Compound B (1.5 mg/kg, 3 mg/kg, or 5 mg/kg) or I (0.5 mg/kg, 0.7 mg/kg, or 1 mg/kg). Peripheral blood samples were collected retro-orbitally using heparinized capillary tubes into blood collection tubes with K2-EDTA. Complete blood counting was performed using Hemavet 950. Hematocrit (HCT), red blood cell (RBC) and hemoglobin (Hb) values are shown.

In another assay the target is T1, CHRM4 (Homo sapiens, UniProt P08173).
T1 sequence (P08173 1-479): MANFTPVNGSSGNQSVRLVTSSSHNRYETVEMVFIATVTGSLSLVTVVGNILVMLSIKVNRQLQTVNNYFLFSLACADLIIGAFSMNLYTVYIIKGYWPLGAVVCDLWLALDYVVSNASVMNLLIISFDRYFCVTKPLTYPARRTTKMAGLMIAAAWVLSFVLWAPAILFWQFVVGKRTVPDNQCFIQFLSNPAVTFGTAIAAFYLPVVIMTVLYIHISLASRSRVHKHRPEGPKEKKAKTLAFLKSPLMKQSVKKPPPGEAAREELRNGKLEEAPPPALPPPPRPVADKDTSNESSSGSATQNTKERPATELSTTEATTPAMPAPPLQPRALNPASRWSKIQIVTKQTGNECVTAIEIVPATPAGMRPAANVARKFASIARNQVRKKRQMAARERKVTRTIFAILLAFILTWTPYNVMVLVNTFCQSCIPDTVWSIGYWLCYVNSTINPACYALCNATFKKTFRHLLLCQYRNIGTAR
The assay is described as follows: Radioligand binding assay, CHRM4. The settings on record: [3H]4-DAMP (0.2 nM), CHO cell membranes, 60 minutes at room temperature; read-out: Ki M4. The arrangement: expressed in transfected cells; host or cells: CHO cells (membranes). On the procedure: (§1) PD102807 and Compounds A-K at concentrations of 1×10^−9 M, 1×10^−8 M, 1×10^−7 M, 1×10^−6 M, and 1×10^−5 M were tested in standard binding assays with radioligands and cell membranes with receptors. Compound binding was calculated as a percent inhibition of the binding of a radioactively labeled ligand specific for each target, and the Ki values were determined. For CHRM1, the binding assay was performed using [^3H]pirenzepine (2 nM) as a radioligand and membranes of CHO cells with human recombinant CHRM1 receptor. The incubation time was 60 minutes at room temperature. For CHRM2, the binding assay was performed using [^3H]AF-DX 384 (2 nM) as a radioligand and membranes of CHO cells with human recombinant CHRM2 receptor. The incubation time was also 60 minutes at room temperature. For CHRM3, the binding assay was performed using [^3H]4-DAMP (0.2 nM) as a radioligand and membranes of CHO cells with human recombinant CHRM3 receptor. The incubation time was also 60 minutes at room temperature. For CHRM4, the binding assay was performed using [^3H]4-DAMP (0.2 nM) as a radioligand and membranes of CHO cells with human recombinant CHRM4 receptor. The incubation time was also 60 minutes at room temperature. For CHRM5, the binding assay was performed using [^3H]4-DAMP (0.3 nM) as a radioligand and membranes of CHO cells with human recombinant CHRM5 receptor. The incubation time was also 60 minutes at room temperature.

The target in assay [2] is T2, human recombinant CHRM1 receptor (Homo sapiens, UniProt P11229).
T2 construct: expressed in transfected cells; host or cells: CHO cells (membranes)
T2 sequence (P11229 1-460): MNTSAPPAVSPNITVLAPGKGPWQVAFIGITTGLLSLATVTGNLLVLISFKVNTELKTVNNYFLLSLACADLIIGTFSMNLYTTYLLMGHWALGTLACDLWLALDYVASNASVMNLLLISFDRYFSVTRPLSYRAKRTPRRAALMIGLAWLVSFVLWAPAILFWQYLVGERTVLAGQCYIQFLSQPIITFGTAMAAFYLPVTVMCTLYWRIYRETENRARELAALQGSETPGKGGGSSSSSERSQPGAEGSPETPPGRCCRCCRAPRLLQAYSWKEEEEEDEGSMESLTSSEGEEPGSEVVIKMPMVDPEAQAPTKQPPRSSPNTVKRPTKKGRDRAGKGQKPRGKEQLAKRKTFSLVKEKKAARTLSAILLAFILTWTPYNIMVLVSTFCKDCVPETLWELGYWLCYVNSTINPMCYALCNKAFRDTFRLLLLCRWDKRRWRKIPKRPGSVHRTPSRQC
Nature of the assay: Radioligand binding assay, CHRM1. The note with it: [3H]pirenzepine (2 nM), CHO cell membranes, 60 minutes at room temperature; read-out: Ki M1. On the procedure: as §1

Assay [3] has as its target T3, human recombinant CHRM2 receptor (Homo sapiens, UniProt P08172).
T3 construct: expressed in transfected cells; host or cells: CHO cells (membranes)
T3 sequence (P08172 1-466): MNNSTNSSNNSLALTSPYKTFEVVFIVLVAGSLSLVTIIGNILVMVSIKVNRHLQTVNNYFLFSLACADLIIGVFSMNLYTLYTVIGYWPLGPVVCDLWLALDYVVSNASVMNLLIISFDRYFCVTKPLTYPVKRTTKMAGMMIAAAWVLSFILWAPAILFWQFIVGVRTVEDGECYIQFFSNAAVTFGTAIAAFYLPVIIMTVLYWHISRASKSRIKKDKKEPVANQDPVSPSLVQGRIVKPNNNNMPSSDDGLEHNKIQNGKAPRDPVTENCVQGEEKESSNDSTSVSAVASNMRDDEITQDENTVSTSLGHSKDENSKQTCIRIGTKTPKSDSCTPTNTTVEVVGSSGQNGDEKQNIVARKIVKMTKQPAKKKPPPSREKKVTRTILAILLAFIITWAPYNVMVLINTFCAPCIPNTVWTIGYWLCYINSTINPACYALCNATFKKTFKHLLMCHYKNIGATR
The assay is described as follows: Radioligand binding assay, CHRM2. The note with it: [3H]AF-DX 384 (2 nM), CHO cell membranes, 60 minutes at room temperature; read-out: Ki M2. How it is done:
as §1

In assay [4] the target is T4, human recombinant CHRM3 receptor (Homo sapiens, UniProt P20309).
T4 construct: expressed in transfected cells; host or cells: CHO cells (membranes)
The assay is described as follows: Radioligand binding assay, CHRM3. The settings on record: [3H]4-DAMP (0.2 nM), CHO cell membranes, 60 minutes at room temperature; read-out: Ki M3. How it is done: as §1

T4 sequence (P20309 whole entry): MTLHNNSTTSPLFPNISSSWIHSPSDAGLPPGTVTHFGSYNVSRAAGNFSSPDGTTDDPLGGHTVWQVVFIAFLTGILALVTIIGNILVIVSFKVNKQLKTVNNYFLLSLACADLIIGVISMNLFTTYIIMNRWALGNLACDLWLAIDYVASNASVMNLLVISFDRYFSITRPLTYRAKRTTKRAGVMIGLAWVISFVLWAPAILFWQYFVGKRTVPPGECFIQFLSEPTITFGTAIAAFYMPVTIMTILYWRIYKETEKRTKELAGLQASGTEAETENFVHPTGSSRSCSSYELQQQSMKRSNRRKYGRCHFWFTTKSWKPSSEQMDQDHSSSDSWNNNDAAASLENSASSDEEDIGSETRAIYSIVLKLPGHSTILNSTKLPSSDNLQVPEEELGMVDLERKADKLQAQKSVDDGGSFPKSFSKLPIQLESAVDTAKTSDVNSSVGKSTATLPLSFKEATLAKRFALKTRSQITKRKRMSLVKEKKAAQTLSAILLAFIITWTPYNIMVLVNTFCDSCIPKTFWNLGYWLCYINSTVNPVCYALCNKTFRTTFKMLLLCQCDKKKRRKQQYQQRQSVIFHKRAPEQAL

Usually Ki stands for a dissociation constant, usually derived from enzyme kinetics or from competition with a known ligand. In the case of `CCOC(=O)c1c(C)[nH]c2ccc3c(c12)C[N+]1(C)CCc2cc(OC)ccc2C1O3` (single isomer, unassigned) [Compound B, 1-(ethoxycarbonyl)-9-methoxy-2,13-dimethyl-3,6a,11,12,13,14-hexahydroindolo[4′,5′:5,6][1,3]oxazino[2,3-a]isoquinolin-13-ium Iodide], the “potency in stimulating BFU-E expansion” value in the assay on Mouse BFU-Es is listed as “slightly less potent than the others”. Besides, the “treatment of anemia in vivo (HCT, RBC, Hb)” value in assay [1] was “treat anemia in vivo”. Besides, the inhibitory constant (Ki) at CHRM4 came out at 4.3 µM.
Turning to `CCOC(=O)c1c(C)[nH]c2ccc(OC)c(CN3CCc4cc(OC)ccc4C3)c12` [Compound E, ethyl 5-methoxy-4-((6-methoxy-3,4-dihydroisoquinolin-2(1H)-yl)methyl)-2-methyl-1H-indole-3-carboxylate], the values for the Ki (in assay [2]; in assay [3]; on CHRM4) were 8.5 µM, 2.6 µM and 1.5 µM, respectively.
On to `Cc1ccccc1C(OCCN(C)C)c1ccccc1` (stereo not drawn) [orphenadrine citrate], for which the “BFU-E expansion (test of GPCR agonists and antagonists)” value with Mouse BFU-Es (mouse BFU-E culture) is on record as “triggered BFU-E expansion”.
As for `CCOC(=O)c1c(C)n(C)c2cc(CN3CCc4cc(OC)ccc4C3)c(OC)cc12` [J], the Ki is 1.7 µM in assay [4], 1.3 µM in assay [2], 0.75 µM in assay [3] and 0.0089 µM at CHRM4.
On to `CCOC(=O)c1c(C)n(C)c2ccc3c(c12)CN1CCc2cc(OC)ccc2C1O3` (stereo not drawn) [Compound C, Ethyl 9-methoxy-2,3-dimethyl-3,6a,11,14-tetrahydro-12H-indolo[4′,5′:5,6][1,3]oxazino[2,3-a]isoquinoline-1-carboxylate], for which the Ki in assay [4] worked out at 0.6 µM; in assay [2] it was 5.2 µM; in assay [3], 0.85 µM; at CHRM4, 0.0046 µM.
As to `CCOC(=O)c1c(C)n(C)c2ccc(O)c(CN3CCc4cc(OC)ccc4C3)c12` [Compound D, Ethyl 5-hydroxy-4-((6-methoxy-3,4-dihydroisoquinolin-2(1H)-yl)methyl)-1,2-dimethyl-1H-indole-3-carboxylate], the Ki in assay [4] is 0.74 µM; in assay [2] it was 0.28 µM; in assay [3] it was 0.059 µM; at CHRM4 it was 0.042 µM.
Take `CCOC(=O)c1c(C)n(C)c2ccc(OC)c(CN3CCc4cc(OC)ccc4C3)c12` [F]: the Ki in assay [4] was found to be 3.9 µM; in assay [3], 3.9 µM; at CHRM4 it was 0.95 µM. Besides, in the assay on Mouse BFU-Es, the “potency in stimulating BFU-E expansion” value was “slightly less potent than the others”.
Regarding `CCCCCCOC(=O)[C@]1(O)C[C@@H]2O[C@@]1(C)n1c3ccccc3c3c4c(c5c6ccccc6n2c5c31)C(=O)NC4` [KT5720], in the assay on Mouse BFU-Es (5 μM KT5720 (with 3 nM PD102807), day 9, vs untreated), the fold cell expansion entry was “significantly reduced fold cell expansion”.
